From patent publication US20110021530A1, “PYRIDAZINE DERIVATIVES AND THEIR USE AS THERAPEUTIC AGENTS IN THE TREATMENT OF SKIN DISORDERS” (XENON PHARMACEUTICALS INC., priority 2008, published 2011)

Legend:
[1] = test system: HEPG2; assay: HEPG2 IC50; type: cell-based; conditions: Homo sapiens
[2] = target: T1, stearoyl-CoA desaturase (SCD) (Mus musculus, UniProt P13516); assay: HTS microsomal assay of stearoyl-CoA desaturase inhibition using mouse liver microsomes; type: biochemical; conditions: % SCD enzyme activity remaining at 10 μM test compound
T1 construct: Reactions are started by adding 2 mg of microsomal protein; from tissue; host or cells: liver microsomes of male ICR mice on a high-carbohydrate, low fat diet
T1 sequence (P13516 1-355): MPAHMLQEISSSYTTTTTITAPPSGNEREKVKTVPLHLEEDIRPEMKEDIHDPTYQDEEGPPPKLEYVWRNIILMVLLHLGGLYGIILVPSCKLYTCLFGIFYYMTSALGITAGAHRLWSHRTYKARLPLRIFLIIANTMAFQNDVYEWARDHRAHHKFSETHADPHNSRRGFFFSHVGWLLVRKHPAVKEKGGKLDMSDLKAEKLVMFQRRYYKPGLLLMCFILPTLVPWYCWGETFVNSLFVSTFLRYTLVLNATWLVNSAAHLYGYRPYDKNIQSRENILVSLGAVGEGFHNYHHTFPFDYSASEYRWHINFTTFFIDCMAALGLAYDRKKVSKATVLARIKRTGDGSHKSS
Experimental: The absence of mitochondrial contamination is enzymatically assessed.
The compounds are analyzed with an HTS microsomal assay.

[3] = target: T2, SCD (Mus musculus, UniProt P13516); assay: Mouse SCD IC50 determination for compounds active in the HTS assay; type: biochemical
T2 sequence (P13516 1-355): T1 sequence (P13516 1-355)
Experimental: The compounds are analyzed with an HTS microsomal assay. The activities are defined in terms of % SCD enzyme activity remaining at the selected concentration (e.g., 10 μM) of the test compounds.

| SMILES | melting point | IC50 [1] | Mouse microsome SCD activity % remaining @ 10 μM [2] | IC50 [3] |
| --- | --- | --- | --- | --- |
| O=C(NCCC1CC1)Nc1ccc(N2CCN(C(=O)c3ccccc3C(F)(F)F)CC2)nn1 | > 300 °C | – | – | – |
| O=C(NCCC1CC1)c1ccc(N2CCN(C(=O)c3cc(C(F)(F)F)ccc3C(F)(F)F)CC2)nn1 [6-[4-(2,5-BIS-TRIFLUOROMETHYLBENZOYL)PIPERAZIN-1-YL]PYRIDAZINE-3-CARBOXYLIC ACID (2-CYCLOPROPYLETHYL)AMIDE] | – | 70 nM | 6% | 150 nM |
| O=C(NCCC1CC1)c1ccc(N2CCN(Cc3cc(Cl)ccc3Cl)CC2)nn1 [6-[4-(2,5-DICHLOROBENZYL)PIPERAZIN-1-YL]PYRIDAZINE-3-CARBOXYLIC ACID (2-CYCLOPROPYLETHYL)AMIDE] | – | 60 nM | 8% | 180 nM |
| CC(C)CCNC(=O)c1ccc(N2CCN(C(=O)c3ccccc3N)CC2)nn1 [6-[4-(2-AMINOBENZOYL)PIPERAZIN-1-YL]PYRIDAZINE-3-CARBOXYLIC ACID (3-METHYLBUTYL)AMIDE] | – | 640 nM | 23% | 450 nM |
| O=C(NCCC1CC1)c1ccc(N2CCN(Cc3ccc(F)cc3Cl)CC2)nn1 [6-[4-(2-CHLORO-4-FLUOROBENZYL)PIPERAZIN-1-YL]PYRIDAZINE-3-CARBOXYLIC ACID (2-CYCLOPROPYLETHYL)AMIDE] | – | 70 nM | 11% | 130 nM |
| CC(C)CCNC(=O)c1ccc(N2CCN(C(=O)c3ccccc3[N+](=O)[O-])CC2)nn1 [6-[4-(2-NITROBENZOYL)PIPERAZIN-1-YL]PYRIDAZINE-3-CARBOXYLIC ACID (3-METHYLBUTYL)AMIDE] | – | 120 nM | 8% | 80 nM |
| O=C(NCC1CC1)c1ccc(N2CCN(C(=O)c3ccccc3C(F)(F)F)CC2)nn1 [6-[4-(2-TRIFLUOROMETHYLBENZOYL)PIPERAZIN-1-YL]PYRIDAZINE-3-CARBOXYLIC ACID CYCLOPROPYLMETHYLAMIDE] | – | 5520 nM | 49% | 8690 nM |
| O=C(NCCc1ccc(F)cc1F)c1ccc(N2CCN(C(=O)c3ccccc3C(F)(F)F)CC2)nn1 [6-[4-(2-TRIFLUOROMETHYLBENZOYL)PIPERAZIN-1-YL]PYRIDAZINE-3-CARBOXYLIC ACID [2-(2,4-DIFLUOROPHENYL)ETHYL]AMIDE] | 179 to 181 °C | 20 nM | 5% | 20 nM |
| COc1ccc(CCNC(=O)c2ccc(N3CCN(C(=O)c4ccccc4C(F)(F)F)CC3)nn2)cc1 [6-[4-(2-TRIFLUOROMETHYLBENZOYL)PIPERAZIN-1-YL]PYRIDAZINE-3-CARBOXYLIC ACID [2-(4-METOXYPHENYL)ETHYL]AMIDE] | – | 80 nM | 7% | 1630 nM |
| O=C(NCCC1CC1)c1ccc(N2CCN(C(=O)c3ccoc3C(F)(F)F)CC2)nn1 [6-[4-(2-TRIFLUOROMETHYLFURAN-3-CARBONYL)PIPERAZIN-1-YL]PYRIDAZINE-3-CARBOXYLIC ACID (2-CYCLOPROPYLETHYL)AMIDE] | – | 290 nM | 7% | 260 nM |
| CC(C(=O)N1CCN(c2ccc(C(=O)NCCC3CC3)nn2)CC1)(C(F)(F)F)C(F)(F)F [6-[4-(3,3,3-TRIFLUORO-2-METHYL-2-TRIFLUOROMETHYLPROPIONYL)PIPERAZIN-1-YL]PYRIDAZINE-3-CARBOXYLIC ACID (2-CYCLOPROPYLETHYL)AMIDE] | – | 120 nM | 8% | 110 nM |
| O=C(NCCC1CC1)c1ccc(N2CCN(C(=O)CC(O)(C(F)(F)F)C(F)(F)F)CC2)nn1 [6-[4-(4,4,4-TRIFLUORO-3-HYDROXY-3-TRIFLUOROMETHYLBUTYRYL)PIPERAZIN-1-YL]PYRIDAZINE-3-CARBOXYLIC ACID (2-CYCLOPROPYLETHYL)AMIDE] | – | 120 nM | 8% | 480 nM |
| CC(=CC(=O)N1CCN(c2ccc(C(=O)NCCC(C)C)nn2)CC1)C(F)(F)F [6-[4-(4,4,4-TRIFLUORO-3-METHYLBUT-2-ENOYL)PIPERAZIN-1-YL]PYRIDAZINE-3-CARBOXYLIC ACID (3-METHYLBUTYL)AMIDE] | – | 540 nM | 9% | 340 nM |
| O=C(NCCC1CC1)c1ccc(N2CCN(Cc3ccc(F)cc3C(F)(F)F)CC2)nn1 [6-[4-(4-FLUORO-2-TRIFLUOROMETHYLBENZYL)-PIPERAZIN-1-YL]PYRIDAZINE-3-CARBOXYLIC ACID (2-CYCLOPROPYLETHYL)AMIDE] | – | 10 nM | 12% | 20 nM |
| CC(C)CCNC(=O)c1ccc(N2CCN(C(=O)c3cnccc3C(F)(F)F)CC2)nn1 [6-[4-(4-TRIFLUOROMETHYLPYRIDINE-3-CARBONYL)PIPERAZIN-1-YL]PYRIDAZINE-3-CARBOXYLIC ACID (3-METHYLBUTYL)AMIDE] | – | 240 nM | 8% | 80 nM |
| O=C(NCCC1CC1)c1ccc(N2CCN(Cc3cc(Cl)ccc3C(F)(F)F)CC2)nn1 [6-[4-(5-CHLORO-2-TRIFLUOROMETHYLBENZYL)PIPERAZIN-1-YL]PYRIDAZINE-3-CARBOXYLIC ACID (2-CYCLOPROPYLETHYL)AMIDE] | – | 40 nM | 7% | 60 nM |
| O=C(NCCC1CC1)c1ccc(N2CCN(Cc3cc(F)ccc3C(F)(F)F)CC2)nn1 [6-[4-(5-FLUORO-2-TRIFLUOROMETHYLBENZYL)PIPERAZIN-1-YL]PYRIDAZINE-3-CARBOXYLIC ACID (2-CYCLOPROPYLETHYL)AMIDE] | – | 20 nM | 3% | 20 nM |
| O=C(NCCCC1CC1)c1ccc(N2CCN(Cc3cc(F)ccc3C(F)(F)F)CC2)nn1 [6-[4-(5-FLUORO-2-TRIFLUOROMETHYLBENZYL)PIPERAZIN-1-YL]PYRIDAZINE-3-CARBOXYLIC ACID (3-CYCLOPROPYLPROPYL)AMIDE] | – | 60 nM | 8% | 180 nM |
| CC(C)CCNC(=O)c1ccc(N2CCN(C(=O)c3cc(Cl)ccc3C(F)(F)F)CC2)nn1 [Example 3.7, 6-[4-(5-CHLORO-2-TRIFLUOROMETHYLBENZOYL)PIPERAZIN-1-YL]PYRIDAZINE-3-CARBOXYLIC ACID (3-METHYLBUTYL)AMIDE] | 148 to 151 °C | – | – | – |
| CC(O)(C(=O)N1CCN(c2ccc(C(=O)NCCC3CC3)nn2)CC1)C(F)(F)F (stereo not drawn) [Example 14.8, 6-[4-(3,3,3-TRIFLUORO-2-HYDROXY-2-METHYLPROPIONYL)PIPERAZIN-1-YL]PYRIDAZINE-3-CARBOXYLIC ACID (2-CYCLOPROPYLETHYL)AMIDE] | 181 to 183 °C | – | – | – |
| CC(C)(C)C(O)CNC(=O)c1ccc(N2CCN(C(=O)c3ccccc3C(F)(F)F)CC2)nn1 (stereo not drawn) [Example 15.29, 6-[4-(2-TRIFLUOROMETHYLBENZOYL)PIPERAZIN-1-YL]PYRIDAZINE-3-CARBOXYLIC ACID (2-HYDROXY-3,3-DIMETHYLBUTYL)AMIDE] | 236 to 240 °C | – | – | – |
| CC(C)(C)C(O)CNC(=O)c1ccc(N2CCN(C(=O)c3cc(F)ccc3C(F)(F)F)CC2)nn1 (stereo not drawn) [Example 15.30, 6-[4-(5-FLUORO-2-TRIFLUOROMETHYLBENZOYL)PIPERAZIN-1-YL]PYRIDAZINE-3-CARBOXYLIC ACID (2-HYDROXY-3,3-DIMETHYLBUTYL)AMIDE] | 186 to 189 °C | – | – | – |
| CC(C)CCCNC(=O)c1ccc(N2CCN(C(=O)c3ccccc3C(F)(F)F)CC2)nn1 [Example 15.33, 6-[4-(2-TRIFLUOROMETHYLBENZOYL)PIPERAZIN-1-YL]PYRIDAZINE-3-CARBOXYLIC ACID (4-METHYLPENTYL)AMIDE] | 43 to 45 °C | – | – | – |
| O=C(NCC(O)c1cccc(F)c1)c1ccc(N2CCN(C(=O)c3ccccc3C(F)(F)F)CC2)nn1 (stereo not drawn) [Example 27.4, 6-[4-(2-TRIFLUOROMETHYLBENZOYL)PIPERAZIN-1-YL]PYRIDAZINE-3-CARBOXYLIC ACID [2-(3-FLUOROPHENYL)-2-HYDROXYETHYL]AMIDE] | 117 to 119 °C | – | – | – |
| O=C(NCCc1ccccn1)c1ccc(N2CCN(C(=O)c3ccccc3C(F)(F)F)CC2)nn1 [Example 28.2, 6-[4-(2-TRIFLUOROMETHYLBENZOYL)PIPERAZIN-1-YL]PYRIDAZINE-3-CARBOXYLIC ACID (2-PYRIDIN-2-YLETHYL)AMIDE] | 151 to 154 °C | – | – | – |
| O=C(NCc1ccccn1)c1ccc(N2CCN(C(=O)c3ccccc3C(F)(F)F)CC2)nn1 [Example 30, 6-[4-(2-TRIFLUOROMETHYLBENZOYL)PIPERAZIN-1-YL]PYRIDAZINE-3-CARBOXYLIC ACID (PYRIDIN-2-YL-METHYL)AMIDE] | 179 to 181 °C | – | – | – |
| O=C(NCCc1ccc2c(c1)OCO2)c1ccc(N2CCN(C(=O)c3ccccc3C(F)(F)F)CC2)nn1 [Example 30.1, 6-[4-(2-TRIFLUOROMETHYLBENZOYL)PIPERAZIN-1-YL]PYRIDAZINE-3-CARBOXYLIC ACID (2-BENZO[1,3]DIOXOL-5-YL-ETHYL)AMIDE] | 162 to 164 °C | – | – | – |
| O=C(NCCC1CC1)c1ccc(N2CCN(C(=S)c3ccccc3C(F)(F)F)CC2)nn1 [Example 31, 6-[4-(2-TRIFLUOROMETHYLTHIOBENZOYL)PIPERAZIN-1-YL]-PYRIDAZINE-3-CARBOXYLIC ACID (2-CYCLOPROPYLETHYL)AMIDE] | 117 to 120 °C | – | – | – |
